Like-named read-outs stand apart in the source and are kept apart here.

The conditions of data set [1]: 37° C., cited from earlier work.
Data set [2] can be described thus: Gadolinium release after the addition of zinc and phosphate (transmetallation). The settings on record: phosphate buffer pH 7.00, 2.5 mmol/L gadolinium complex, 2.5 mmol/L ZnCl2, 37° C., up to 72 h, FIG. 2.
Experimental: The technique is based on measurement of the evolution of the water proton paramagnetic longitudinal relaxation rate in phosphate buffer (pH 7.00, 26 mmol/L, KH2PO4 Merck, Hessen, Germany) containing 2.5 mmol/L gadolinium complex and 2.5 mmol/L ZnCl2 Sigma-Aldrich, Munich, Germany). […] The mixture was vigorously stirred, and 300 μL were taken out for the relaxometric study at 0 min, 60 min, 120 min, 3 h, 4 h, 5 h, 24 h, 48 h and 72 h. The measurements were performed on a MiniSpec mq60 spectrometer (Bruker Analytik, Karlsruhe, Germany) at 60 MHz and 37° C.
Data set [3] can be described thus: Pharmacokinetic parameters in rats (blood plasma kinetic). It is filed as in vivo, male rats (Han-Wistar). Conditions: male rats, 0.1 mmol Gd/kg bolus tail vein, mean. The protocol: Pharmacokinetic parameters of the compound of Example 3 were determined in male rats (Han-Wistar, 220-230 g, n=3). The compound was administered as a sterile aqueous solution (52.5 mmol Gd/L) as a bolus in the tail vein of the animals. The dose was 0.1 mmol Gd/kg. Blood was sampled 1, 3, 5, 10, 15, 30, 60, 90, 120, 240, 360, 480 and 1440 min post injection and the Gd concentration was determined by Inductively Coupled Plasma Mass Spectroscopy (ICP-MS Agilent 7500a, Waldbronn, Germany). The blood level was converted to plasma concentrations by division by 0.625 (plasma fraction of rat blood, assuming strictly extracellular distribution). As a control, 3 animals were treated in the same way with Gadovist®, a low molecular weight contrast agent.
The fit of the obtained data to a three compartment model (Phoenix—WinNonlin) yielded the pharmacokinetic parameters which are shown in Table 3.

Data set [4] is described as follows: Whole body imaging (dynamic MRI and tissue Gd concentration). The settings on record: rabbits, tissues 30 min p.i., FIGS. 8A and 8B. It is filed as in vivo, male New Zealand white rabbits. The protocol: The study was performed with a clinical whole body MRI equipped with body spine coil, abdomen flex coil, neck coil (1.5 T Magnetom Avanto, Siemens Healthcare, Erlangen, Germany). The study was done using male New Zealand white rabbits (weight 2.3-3.0 kg, n=8, Charles River Kisslegg). All animals were initially anesthetized using a body weight-adjusted intramuscular injection of a mixture (1+2) of xylazine hydrochloride (20 mg/mL, Rompun 2%, Bayer Vital GmbH, Leverkusen, Germany) and ketamine hydrochloride (100 mg/mL, Ketavet, Pfizer, Pharmacia GmbH, Berlin, Germany) using 1 mL/kg body weight. The continuous anesthesia of the intubated animals (endotracheal tube, Rueschelit Super Safe Clear, cuff 3.0 mm, Willy Ruesch AG, Kernen, Germany) was achieved by the intravenous injection of 0.9 mg propofol per kilogram per hour (10 mg/mL, Propofol-Lipuro 1%, B. Braun Melsungen AG, Melsungen, Germany). The continuous intravenous injection was performed using a MR infusion system (Continuum MR Infusion System, Medrad Europe B. V., A E Beek, Germany). The tracheal respiration (SV 900C, Maquet, Rastatt, Germany) was performed with 55% oxygen, forty breaths per minute and a breathing volume of 7 mL per kilogram body weight per minute.
Dynamic MRI measurements up to 22 min post injection with subsequent quantitative signal analysis (Siemens Mean Curve software (SYNGO Task Card, Siemens Healthcare, Erlangen, Germany), were performed for three different regions head and neck (brain, tongue, chops muscle, neck muscle), abdomen (spleen, liver, blood) and pelvis (extremity muscle). For the three different slice groups a 3D T1-weighted Vibe sequence was used (TR=4.74 ms, TE=2.38, flip=10°, 1:29 min). The dynamic measurements of the three slice groups (Head/Neck: 1:29 min, Abdomen: 0:49 min, Pelvis: 1:16 min) were done up to 22 min post injection: 1. Head/Neck: baseline, 1.4, 5.2, 8.9, 12.8, 16.5, 20.4 min, 2. Abdomen: baseline, 0.5, 4.3, 8.1, 11.9, 15.7, 19.5 min and 3. Pelvis: baseline, 2.9, 6.7, 10.5, 14.4, 18.1, 22.0 min. At 30 min post injection the animals were sacrificed and the Gd concentrations were measured using Inductively Coupled Plasma Mass Spectroscopy (ICP-MS Agilent 7500a, Waldbronn, Germany) in the following tissue samples: blood, brain, tongue, liver and extremity muscle. A quantitative image evaluation was performed for the 30 min time point p.i. due to the combination of the quantitative ICP-MS Gadolinium concentrations and the MRI region-of-interest analysis.

For `O=C([O-])CN1CCN(CC(=O)[O-])CCN([C@H](CO)[C@H](O)CO)CCN(CC(=O)[O-])CC1.[Gd+3]` (racemic) [Reference compound 1, gadobutrol, reference compound], the r1 human plasma in data set [1] (reference compounds (marked ^), plasma, 3.0 T, average ± standard deviation) is 5.0 ± 0.3 L/mmol/s. Further, the r1 water in data set [1] (reference compounds (marked ^), 3.0 T, average ± standard deviation) was 3.2 ± 0.3 L/mmol/s. The “r1 FBS” value in data set [1] (reference compounds, bovine plasma, 1.5 T, from Rohrer et al.) is 5.2 L/mmol/s. The r1 water in data set [1] (reference compounds, 1.5 T, from Rohrer et al.) is 3.3 L/mmol/s. Besides, the “stability against transmetallation (relative longitudinal relaxation rate R1p(t)/R1p(0) versus time)” value in data set [2] was “high stability”. Moreover, in data set [3], the “AUC∞ Area under the curve (to infinity)” value amounted to 11500 µmol·min/L; the “MRT Mean residence time” value stood at 30.1 min; the “V1 + V2 Volume, compartments V1 + V2” value is 0.25 L/kg; the “V2 Volume, compartment V2” value was 0.12 L/kg. In data set [3], the “Vc (V1) Volume, central compartment V1” value is 0.14 L/kg and the “Vd,ss Volume of distribution at steady state” value amounted to 0.28 L/kg. Also, in data set [3] (three compartment model), the “t½ α Half-life, compartment V1” value was 1.6 min; the “t½ β Half-life, compartment V2” value turned out to be 20.5 min; the “t½ γ Half-life, compartment V3” value stood at 232 min. For the same compound, the “slope of the linear regression between tissue gadolinium concentration and MRI signal change” value in data set [4] was determined as 1.0.

These data come from patent US11491245B2, “Gadolinium chelate compounds for use in magnetic resonance imaging” (BAYER PHARMA AKTIENGESELLSCHAFT, priority 2015, dated 2022).
